Assay in all cases: KINOMEscan competition binding
Common to all, as to settings: compound 10.0 µM

The subject of test [1] is FLT3 (human), P36888 [D835H].
Test [2] concerns FLT3 (human), P36888 [ITD].
The next test addresses PTK6 (human) (UniProt Q13882).
For the next test, the target named is CAMK2D (human) (UniProt Q13557).
A further test addresses CAMK2A (human) (UniProt Q9UQM7).
The target in another test is GAK (human) (UniProt O14976).
The target of the next test is MAPK7 (human) (UniProt Q13164).
For the next test, the target named is MYLK4 (human) (UniProt Q86YV6).
Another test addresses CAMK2G (human) (UniProt Q13555).
The target of another test is DCLK1 (human) (UniProt O15075).
Test [3] deals with FLT3 (human), P36888 [K663Q].
In another test the target is CAMK2B (human) (UniProt Q13554).
The next test addresses DCLK3 (human) (UniProt Q9C098).
Test [4] relates to ABL1 (human), P00519 [F317L].
For another test, the target named is TNK2 (human) (UniProt Q07912).
Test [5] has as its system ABL1 (human), P00519 [F317I].
Another test deals with TTK (human) (UniProt P33981).
In test [6] the test system is FLT3 (human), P36888 [N841I].
The next test has as its target FRK (human) (UniProt P42685).
Another test deals with CLK4 (human) (UniProt Q9HAZ1).
The target of another test is MKNK2 (human) (UniProt Q9HBH9).
Another test deals with ALK (human) (UniProt Q9UM73).
A further test addresses ULK2 (human) (UniProt Q8IYT8).
A further test concerns the target PHKG1 (human) (UniProt Q16816).
A further test deals with DYRK1B (human) (UniProt Q9Y463).
Another test addresses FLT3 (human) (UniProt P36888).
The target in a further test is TNK1 (human) (UniProt Q13470).
For another test, the target named is CLK1 (human) (UniProt P49759).
A further test concerns the target DCLK2 (human) (UniProt Q8N568).
The subject of test [7] is FLT3 (human), P36888 [D835Y].
The target of the next test is DDR1 (human) (UniProt Q08345).
The target of another test is TIE1 (human) (UniProt P35590).
In the next test the target is PDGFRB (human) (UniProt P09619).
Test [8] has as its system KIT (human), P10721 [V559D].
The next test has as its target STK10 (human) (UniProt O94804).
Another test has as its target KIT (human) (UniProt P10721).
The next test has as its target SIK1 (human) (UniProt P57059).
Test [9] deals with EGFR (human), P00533 [G719C; 746-750 del].
A further test deals with RPS6KA6 KD2 (human) (UniProt Q9UK32).
The target of a further test is PLK1 (human) (UniProt P53350).
The target in another test is PTK2 (human) (UniProt Q05397).
For test [10], the system named is EGFR (human), P00533 [747-751 del / S ins].
For another test, the target named is PLK3 (human) (UniProt Q9H4B4).
In the next test the target is DAPK3 (human) (UniProt O43293).
Test [11] deals with EGFR (human), P00533 [A750P; 747-749 del].
The subject of test [12] is EGFR (human), P00533 [P753S; 747-752 del].
The next test has as its target SLK (human) (UniProt Q9H2G2).
Another test addresses PTK2B (human) (UniProt Q14289).

Chain of STK10 (human) (O94804 whole entry, looked up): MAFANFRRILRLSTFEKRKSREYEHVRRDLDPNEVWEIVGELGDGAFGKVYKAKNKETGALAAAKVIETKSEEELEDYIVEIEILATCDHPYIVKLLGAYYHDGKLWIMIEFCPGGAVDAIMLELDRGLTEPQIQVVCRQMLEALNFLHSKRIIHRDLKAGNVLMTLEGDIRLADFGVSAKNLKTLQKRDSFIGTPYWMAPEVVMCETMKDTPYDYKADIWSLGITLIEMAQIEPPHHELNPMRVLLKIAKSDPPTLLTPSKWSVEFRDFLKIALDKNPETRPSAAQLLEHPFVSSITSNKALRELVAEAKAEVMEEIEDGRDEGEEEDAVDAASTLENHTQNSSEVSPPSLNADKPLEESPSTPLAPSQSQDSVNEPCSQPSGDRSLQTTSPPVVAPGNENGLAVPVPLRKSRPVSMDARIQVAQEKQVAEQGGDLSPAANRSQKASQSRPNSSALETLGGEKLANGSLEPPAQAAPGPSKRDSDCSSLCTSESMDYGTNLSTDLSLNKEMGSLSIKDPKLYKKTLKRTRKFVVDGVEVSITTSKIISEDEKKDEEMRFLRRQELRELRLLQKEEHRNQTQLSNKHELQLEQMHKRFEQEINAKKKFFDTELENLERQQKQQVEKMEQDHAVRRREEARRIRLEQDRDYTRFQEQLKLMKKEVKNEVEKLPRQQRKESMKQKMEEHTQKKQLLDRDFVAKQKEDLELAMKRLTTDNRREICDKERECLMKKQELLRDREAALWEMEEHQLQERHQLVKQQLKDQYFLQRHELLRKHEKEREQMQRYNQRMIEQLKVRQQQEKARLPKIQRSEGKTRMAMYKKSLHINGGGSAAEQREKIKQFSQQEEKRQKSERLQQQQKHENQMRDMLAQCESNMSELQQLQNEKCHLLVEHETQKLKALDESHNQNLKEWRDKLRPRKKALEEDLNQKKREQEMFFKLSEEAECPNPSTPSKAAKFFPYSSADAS
Chain of FRK (human) (P42685 whole entry, looked up): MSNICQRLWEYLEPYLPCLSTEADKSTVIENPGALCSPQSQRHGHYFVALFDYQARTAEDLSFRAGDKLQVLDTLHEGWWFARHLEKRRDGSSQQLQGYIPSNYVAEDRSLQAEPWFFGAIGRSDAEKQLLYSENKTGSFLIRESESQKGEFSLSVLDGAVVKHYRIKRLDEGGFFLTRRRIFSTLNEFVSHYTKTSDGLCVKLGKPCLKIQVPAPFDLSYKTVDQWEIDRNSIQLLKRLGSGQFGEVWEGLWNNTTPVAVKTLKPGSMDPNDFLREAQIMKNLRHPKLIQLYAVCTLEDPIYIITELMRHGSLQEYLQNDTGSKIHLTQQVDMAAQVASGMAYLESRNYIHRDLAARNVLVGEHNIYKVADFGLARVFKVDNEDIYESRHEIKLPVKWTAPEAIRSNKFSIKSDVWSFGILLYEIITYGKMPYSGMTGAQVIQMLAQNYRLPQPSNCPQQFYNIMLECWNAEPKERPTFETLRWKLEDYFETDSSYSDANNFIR
Chain of GAK (human) (O14976 whole entry, looked up): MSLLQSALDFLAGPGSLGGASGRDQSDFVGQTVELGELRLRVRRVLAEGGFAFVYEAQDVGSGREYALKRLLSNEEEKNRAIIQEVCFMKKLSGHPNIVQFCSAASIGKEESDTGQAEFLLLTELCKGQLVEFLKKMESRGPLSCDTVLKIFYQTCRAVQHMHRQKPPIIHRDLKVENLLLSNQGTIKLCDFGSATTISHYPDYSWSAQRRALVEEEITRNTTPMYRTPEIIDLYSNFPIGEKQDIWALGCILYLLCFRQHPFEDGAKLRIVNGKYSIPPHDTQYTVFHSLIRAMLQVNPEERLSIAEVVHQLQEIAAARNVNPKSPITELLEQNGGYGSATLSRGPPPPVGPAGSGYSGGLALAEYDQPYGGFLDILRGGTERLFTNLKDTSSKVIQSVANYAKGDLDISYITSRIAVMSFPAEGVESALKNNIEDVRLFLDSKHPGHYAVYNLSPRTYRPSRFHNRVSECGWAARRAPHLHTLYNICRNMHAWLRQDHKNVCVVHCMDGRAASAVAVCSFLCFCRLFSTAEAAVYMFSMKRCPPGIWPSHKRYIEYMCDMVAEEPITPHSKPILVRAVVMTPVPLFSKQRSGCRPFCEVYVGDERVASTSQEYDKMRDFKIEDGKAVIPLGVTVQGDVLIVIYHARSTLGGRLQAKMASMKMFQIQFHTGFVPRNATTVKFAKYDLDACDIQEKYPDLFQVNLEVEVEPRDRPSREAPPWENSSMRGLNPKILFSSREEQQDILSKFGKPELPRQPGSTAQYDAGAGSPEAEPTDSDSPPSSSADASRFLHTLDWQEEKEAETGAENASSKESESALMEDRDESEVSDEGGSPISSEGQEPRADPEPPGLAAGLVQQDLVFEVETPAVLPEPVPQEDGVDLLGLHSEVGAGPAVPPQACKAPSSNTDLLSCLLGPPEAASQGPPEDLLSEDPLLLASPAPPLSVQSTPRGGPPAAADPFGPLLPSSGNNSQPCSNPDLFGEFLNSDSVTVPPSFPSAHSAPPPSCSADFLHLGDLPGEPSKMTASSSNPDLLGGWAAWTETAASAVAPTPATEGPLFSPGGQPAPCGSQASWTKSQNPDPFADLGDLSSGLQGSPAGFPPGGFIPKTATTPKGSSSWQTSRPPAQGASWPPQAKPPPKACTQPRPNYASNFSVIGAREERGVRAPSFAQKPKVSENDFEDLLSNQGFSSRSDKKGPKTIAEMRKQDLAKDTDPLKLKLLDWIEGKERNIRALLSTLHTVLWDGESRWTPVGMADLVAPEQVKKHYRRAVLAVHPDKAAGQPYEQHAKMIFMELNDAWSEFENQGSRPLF
Chain of ABL1 (human), P00519 [F317L] (P00519 whole entry F317L, looked up): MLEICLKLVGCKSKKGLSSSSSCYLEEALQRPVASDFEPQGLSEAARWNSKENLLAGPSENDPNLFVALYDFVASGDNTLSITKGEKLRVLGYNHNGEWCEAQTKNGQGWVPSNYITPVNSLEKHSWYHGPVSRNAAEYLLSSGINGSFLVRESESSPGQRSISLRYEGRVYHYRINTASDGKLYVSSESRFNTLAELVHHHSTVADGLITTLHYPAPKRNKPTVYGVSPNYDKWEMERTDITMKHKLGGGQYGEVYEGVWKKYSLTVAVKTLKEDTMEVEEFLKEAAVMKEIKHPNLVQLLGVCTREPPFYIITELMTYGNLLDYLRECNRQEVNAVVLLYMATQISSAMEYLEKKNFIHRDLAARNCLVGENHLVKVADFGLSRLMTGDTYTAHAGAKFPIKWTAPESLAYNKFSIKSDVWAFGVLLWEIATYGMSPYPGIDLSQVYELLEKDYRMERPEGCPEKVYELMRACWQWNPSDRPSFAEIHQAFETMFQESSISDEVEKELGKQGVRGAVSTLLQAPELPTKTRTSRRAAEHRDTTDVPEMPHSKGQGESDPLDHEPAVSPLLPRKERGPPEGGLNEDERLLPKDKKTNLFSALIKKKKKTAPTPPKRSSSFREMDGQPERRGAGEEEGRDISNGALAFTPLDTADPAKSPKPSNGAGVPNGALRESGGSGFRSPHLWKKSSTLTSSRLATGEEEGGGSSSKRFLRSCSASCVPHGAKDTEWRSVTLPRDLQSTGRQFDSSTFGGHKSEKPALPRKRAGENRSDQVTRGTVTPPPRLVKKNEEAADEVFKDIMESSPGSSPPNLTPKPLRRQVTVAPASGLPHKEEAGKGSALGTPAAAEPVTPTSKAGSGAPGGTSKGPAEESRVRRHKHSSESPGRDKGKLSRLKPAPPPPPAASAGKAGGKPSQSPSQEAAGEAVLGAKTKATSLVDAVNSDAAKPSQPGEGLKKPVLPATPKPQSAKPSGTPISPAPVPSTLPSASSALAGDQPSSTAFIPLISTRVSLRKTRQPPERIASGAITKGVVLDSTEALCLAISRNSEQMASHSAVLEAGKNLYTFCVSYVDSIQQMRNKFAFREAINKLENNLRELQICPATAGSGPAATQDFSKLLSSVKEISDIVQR
Chain of TNK2 (human) (Q07912 whole entry, looked up): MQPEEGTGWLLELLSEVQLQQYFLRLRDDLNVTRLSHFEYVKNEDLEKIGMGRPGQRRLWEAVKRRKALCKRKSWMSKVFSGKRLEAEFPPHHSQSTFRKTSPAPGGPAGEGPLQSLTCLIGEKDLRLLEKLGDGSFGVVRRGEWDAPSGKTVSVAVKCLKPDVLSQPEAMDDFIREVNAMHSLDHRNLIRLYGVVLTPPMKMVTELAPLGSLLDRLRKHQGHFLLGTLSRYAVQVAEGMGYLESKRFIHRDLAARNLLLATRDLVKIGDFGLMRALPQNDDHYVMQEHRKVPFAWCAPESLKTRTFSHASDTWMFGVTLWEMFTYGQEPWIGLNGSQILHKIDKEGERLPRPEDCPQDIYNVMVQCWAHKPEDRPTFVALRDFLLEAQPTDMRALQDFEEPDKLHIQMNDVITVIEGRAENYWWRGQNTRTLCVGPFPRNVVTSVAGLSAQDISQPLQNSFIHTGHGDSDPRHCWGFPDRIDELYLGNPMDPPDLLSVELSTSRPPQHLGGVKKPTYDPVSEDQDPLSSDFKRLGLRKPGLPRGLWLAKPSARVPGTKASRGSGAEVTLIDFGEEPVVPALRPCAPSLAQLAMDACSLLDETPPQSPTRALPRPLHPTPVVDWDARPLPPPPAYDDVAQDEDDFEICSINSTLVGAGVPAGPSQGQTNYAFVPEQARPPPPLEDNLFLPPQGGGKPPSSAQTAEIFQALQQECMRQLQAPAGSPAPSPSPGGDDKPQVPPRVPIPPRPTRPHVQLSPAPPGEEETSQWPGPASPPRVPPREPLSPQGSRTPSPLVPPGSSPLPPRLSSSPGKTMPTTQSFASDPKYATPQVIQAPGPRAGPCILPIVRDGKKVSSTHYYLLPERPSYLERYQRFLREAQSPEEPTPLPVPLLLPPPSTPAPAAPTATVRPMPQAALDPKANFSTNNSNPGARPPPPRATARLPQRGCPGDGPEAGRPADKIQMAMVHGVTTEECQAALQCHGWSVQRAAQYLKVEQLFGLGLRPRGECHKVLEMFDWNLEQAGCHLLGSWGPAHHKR
Chain of ABL1 (human), P00519 [F317I] (P00519 whole entry F317I, looked up): as the sequence (P00519 whole entry F317L, looked up) above, with L317I counted along it

As to `COc1cc(N2CCN(C)CC2)ccc1Nc1ncc2c(n1)N(C(C)C)c1ccccc1C(=O)N2`, the kinase still bound, per cent of control in [1] turned out to be 18%; in test [2], 6.5%; at PTK6 (human), 13%; at CAMK2D (human), 7.7%; on CAMK2A (human), 5.4%; at GAK (human), 2%. In addition, the kinase still bound, per cent of control at MAPK7 (human) came to 30%; at MYLK4 (human), 5.8%; on CAMK2G (human), 25%; at DCLK1 (human), 5.4%; in test [3], 13%; on CAMK2B (human), 21%. Besides, the kinase still bound, per cent of control came to 11% on DCLK3 (human); 25% in [4]; 8.4% at TNK2 (human); 15% in test [5]; 1% on TTK (human); 0.35% in [6]. In addition, the kinase still bound, per cent of control on FRK (human) turned out to be 26%; on CLK4 (human), 20%; at MKNK2 (human), 0.8%; at ALK (human), 30%; at ULK2 (human), 27%; at PHKG1 (human), 9.2%. Besides, the kinase still bound, per cent of control is 12% on DYRK1B (human); 13% at FLT3 (human); 10% at TNK1 (human); 27% on CLK1 (human); 17% on DCLK2 (human); 2% in test [7].
As for `NS(=O)(=O)c1ccc(-c2ccc(/C=C3/C(=O)NN(c4ccccc4)C3=O)o2)cc1`, the kinase still bound, per cent of control stood at 34% on DDR1 (human); 25% at TIE1 (human); 33% at PDGFRB (human); 29% in [8]; 27% on STK10 (human); 25% at KIT (human).
As for `COc1cc(N2CCC(N3CCN(C)CC3)CC2)ccc1Nc1ncc2c(n1)N(C1CCCC1)C(C)CC(=O)N2` (centres undefined), the kinase still bound, per cent of control on SIK1 (human) amounted to 27%; in test [9], 30%; on RPS6KA6 KD2 (human), 12%; on GAK (human) it was 1.2%; on PLK1 (human), 0%; in [4], 29%. In addition, the kinase still bound, per cent of control amounted to 11% on TNK2 (human); 7.1% on PTK2 (human); 32% in test [10]; 12% at TTK (human); 19% at STK10 (human); 16% at FRK (human). Besides, the kinase still bound, per cent of control on PLK3 (human) stood at 26%; at DAPK3 (human), 28%; in [11] it was 33%; in test [12], 32%; on SLK (human) it was 7.2%; at PTK2B (human) it was 23%.

The values are drawn from the kinase profiling compilation of Christmann-Franck et al. (2016).
